How the values were obtained:
CD-1 mice [1] = experiment: Maximal Electroshock Procedure (protection from tonic seizures); assay type: in vivo; conditions: Mus musculus, po; maximal electroshock (50 mA, 0.4 second, corneal electrodes); male CD-1 mice; p.o. 30 minutes prior to stimulation; PROBIT analysis; read-out: ED50 (dose at which 50% of the mice were protected from tonic seizures)
Protocol: (§1) Adult, male, CD-1 mice (22-25 grams) were obtained from Charles River Laboratories (Portage, Mich.) and housed at Abbott Laboratories (Abbott Park) under standard lighting conditions of 12 hours on/12 hours off, with lights on at 6 a.m. Food and water were provided ad libitum and mice weighed 25-35 grams at the time of testing.
(§2) Compounds were prepared for oral administration by suspending them in a vehicle of 100 μL Tween® 80 per mL hydroxypropyl methylcellulose (2 mg/mL, Abbott Laboratories). Compound solutions were administered at a volume of 10 mL/kg, p.o.
Maximal Electroshock Procedure:
The method used was similar to that of E.A. Swinyard, General principles: Experimental selection, quantification and evaluation of anti-convulsants, Anti-epileptic Drugs, Third Edition, R. Levey, et al., Editors. 1989, Raven Press Ltd: New York. Mice were pretreated orally with compounds of the present invention 30 minutes prior to electrical stimulation. Electrical stimulation consisted of pulsed electrical current (50 mA, 0.4 second duration, pulse width 0.5 msec, 60 pulses/sec) applied via corneal electrodes to induce seizure. The stimulation was delivered with an ECT Unit (Ugo Basile #7801). […] The percent protection from tonic seizures was calculated by dividing the number of protected mice by the total number in the group. […]

CD-1 mice [2] = experiment: Subcutaneous pentylenetetrazole (PTZ) Seizure Procedure; assay type: in vivo; conditions: Mus musculus; subcutaneous PTZ 85 mg/kg; male CD-1 mice; p.o. 30 minutes prior to PTZ; observed 15 minutes; linear regression; read-out: ED50 (dose at which 50% of the mice were protected from tonic seizures)
Protocol: as §1, §2
Subcutaneous pentylenetetrazole (PTZ) Seizure Procedure:
The method used was similar to that of E. A. Swinyard, General principles: Experimental selection, quantification and evaluation of anti-convulsants, Anti-epileptic Drugs, Third Edition, R. Levey, et al., Editors. 1989, Raven Press Ltd: New York. During the experiment the mice were housed individually in clear polycarbonate cages for observation. […] Seizures were induced by the subcutaneous injection of pentylenetetrazole (PTZ, 85 mg/kg) just below the nape of the neck. […] A total of 20 mice were used in each group. The ED50for the compounds were calculated using linear regression and represent the dose at which 50% of the mice were protected from tonic seizures.

Structure (SMILES): CC1(C)[C@@H]2CC3[C@H](C(=O)O)[C@@]3(C)C[C@@H]21 (stereo partly drawn) (hydrate or solvate) [Example 1, (1S,3S,4S,7R)-3,8,8-trimethyltricyclo[5.1.0.0^3,5]octane-4-carboxylic acid]
- melting point: 86 °C

Structure (SMILES): CC1(C)[C@@H]2CC3[C@H](C(N)=O)[C@@]3(C)C[C@@H]21 (stereo partly drawn) [Example 3, (1S,3S,4S,7R)-3,8,8-trimethyltricyclo[5.1.0.0^3,5]octane-4-carboxamide]
- melting point: 121.5 to 122.5 °C

Structure (SMILES): CC1(C)[C@@H]2CC3[C@H](C(=O)NCC(N)=O)[C@@]3(C)C[C@@H]21 (stereo partly drawn) [Example 4, (1S,3S,4S,7R)-N-(2-amino-2-oxoethyl)-3,8,8-trimethyltricyclo[5.1.0.0^3,5]octane-4-carboxamide]
- melting point: 169.2 to 169.7 °C

Structure (SMILES): CCCC(CCC)C(=O)O [Valproate]
- ED50 (CD-1 mice [1]): 1200 µmol/kg
- ED50 (CD-1 mice [2]): 1800 µmol/kg
